This series in a line: Gelation experiments: inversion test for self-supporting hydrogels. Format: physicochemical. The conditions noted are these: for Gelation (self-supporting gel on inversion), DMEM: DPA solution in water mixed 1:1 with DMEM; for Gelation (self-supporting gel on inversion), DMEM / Concentration at which gel forms, DMEM: no calcium added; for Gelation (self-supporting gel on inversion), PBS / Gelation (self-supporting gel on inversion), Water: final concentrations 1, 2 and 4 weight percent tested; for Gelation (self-supporting gel on inversion), Water: in water; for Concentration at which gel forms, DMEM: mixed with DMEM; for Gelation (self-supporting gel on inversion), Calcium added: DMEM plus 10 μl of 100 mg/cc calcium chloride solution. On the procedure: Inversion tests were performed to determine qualitatively under which conditions the various DPAs formed self-supporting hydrogels. The various types of DPAs were tested by dissolving them in ultrapure water (>18 MΩ resistivity) at double the desired final concentration followed by mixing in a 1:1 ratio with different liquid mediums. Gelation was deemed to have occurred if the gel supported its own weight upon inverting the vial (FIG. 3A and FIG. 3B). Gelation was tested at final concentrations of 1, 2 and 4 weight percent. We tested phosphate buffered saline (PBS), and Dulbecco's modified eagle media (DMEM) as liquid medium. Typical scale is 100 μl each of DPA solution in water and mixing medium but other scales have been tested. Finally, if no spontaneous gelation occurs, 10 μl of 100 mg/cc calcium chloride solution was added to induce gelation.

Take `CCCCCCCCCCCCCCCC(=O)NC(C(=O)NCC(=O)N[C@@H](Cc1ccccc1)C(=O)NCC(=O)N[C@@H](Cc1ccccc1)C(=O)NCC(=O)N[C@@H](Cc1ccccc1)C(=O)NCC(=O)NCC(=O)N[C@@H](CC(N)=O)C(=O)N[C@@H](CO)C(=O)O)C(=O)NCC(=O)N[C@@H](Cc1ccccc1)C(=O)NCC(=O)N[C@@H](Cc1ccccc1)C(=O)NCC(=O)N[C@@H](Cc1ccccc1)C(=O)NCC(=O)NCC(=O)N[C@@H](CC(N)=O)C(=O)N[C@@H](CO)C(=O)O` [Gly-Phe-Gly-Phe-Gly-Phe-Gly-Gly-Asn-Ser]: the “Gelation (self-supporting gel on inversion), DMEM” value (shortened to “Gelation … DMEM”) was “Yes,”; the “Gelation (self-supporting gel on inversion), Water” value (“Gelation … Water” below) is given as “No”; the “Concentration at which gel forms, DMEM” value is on record as 2%. Where the note is “PBS”, the “Gelation (self-supporting gel on inversion), PBS” value (from here on “Gelation … PBS”) was “No”.
For the compound `CCCCCCCCCCCCCCCC(=O)NC(C(=O)NCC(=O)N[C@@H](Cc1ccccc1)C(=O)NCC(=O)N[C@@H](Cc1ccccc1)C(=O)NCC(=O)N[C@@H](Cc1ccccc1)C(=O)NCC(=O)NCC(=O)N[C@@H](CCC(N)=O)C(=O)N[C@@H](CO)C(=O)O)C(=O)NCC(=O)N[C@@H](Cc1ccccc1)C(=O)NCC(=O)N[C@@H](Cc1ccccc1)C(=O)NCC(=O)N[C@@H](Cc1ccccc1)C(=O)NCC(=O)NCC(=O)N[C@@H](CCC(N)=O)C(=O)N[C@@H](CO)C(=O)O` [Gly-Phe-Gly-Phe-Gly-Phe-Gly-Gly-Gln-Ser], the “Gelation … DMEM” value is on record as “Yes,”; the “Gelation … Water” value was “No”; the “Concentration at which gel forms, DMEM” value amounted to 2%. The “Gelation … PBS” value (PBS) was “No”.
`CCCCCCCCCCCCCCCC(=O)NC(C(=O)NCC(=O)N[C@@H](Cc1c[nH]c2ccccc12)C(=O)NCC(=O)N[C@@H](Cc1c[nH]c2ccccc12)C(=O)NCC(=O)N[C@@H](Cc1c[nH]c2ccccc12)C(=O)NCC(=O)N[C@@H](CCC(N)=O)C(=O)N[C@@H](CCC(N)=O)C(=O)N[C@@H](CO)C(=O)O)C(=O)NCC(=O)N[C@@H](Cc1c[nH]c2ccccc12)C(=O)NCC(=O)N[C@@H](Cc1c[nH]c2ccccc12)C(=O)NCC(=O)N[C@@H](Cc1c[nH]c2ccccc12)C(=O)NCC(=O)N[C@@H](CCC(N)=O)C(=O)N[C@@H](CCC(N)=O)C(=O)N[C@@H](CO)C(=O)O` [Gly-Trp-Gly-Trp-Gly-Trp-Gly-Gln-Gln-Ser]: the “Gelation (self-supporting gel on inversion), Calcium added” value is on record as “No”; the “Gelation … DMEM” value is “No”; the “Gelation … Water” value is given as “No”. For the same compound, the “Gelation under all conditions tested” value (2-4 wt %, water, PBS, DMEM and DMEM plus calcium) is listed as “no gelation was observed”. Where the note is “PBS”, the “Gelation … PBS” value is “No”.
In the case of `CCCCCCCCCCCCCCCC(=O)NC(C(=O)NCC(=O)N[C@@H](Cc1ccc(O)cc1)C(=O)NCC(=O)N[C@@H](Cc1ccc(O)cc1)C(=O)NCC(=O)N[C@@H](Cc1ccc(O)cc1)C(=O)NCC(=O)N[C@@H](CCC(N)=O)C(=O)N[C@@H](CCC(N)=O)C(=O)N[C@@H](CO)C(=O)O)C(=O)NCC(=O)N[C@@H](Cc1ccc(O)cc1)C(=O)NCC(=O)N[C@@H](Cc1ccc(O)cc1)C(=O)NCC(=O)N[C@@H](Cc1ccc(O)cc1)C(=O)NCC(=O)N[C@@H](CCC(N)=O)C(=O)N[C@@H](CCC(N)=O)C(=O)N[C@@H](CO)C(=O)O` [Gly-Tyr-Gly-Tyr-Gly-Tyr-Gly-Gln-Gln-Ser], the “Gelation (self-supporting gel on inversion), Calcium added” value was “does form gels and Yes”; the “Gelation … DMEM” value was “does not gel and No”; the “Gelation … Water” value was “does not gel and No”. The “Concentration at which gel forms, Calcium added” value (DMEM with calcium chloride added) is 2%. Further, the “Gelation … PBS” value (PBS) is “does not gel and No”.

The record behind these values is US8546338B2, “Self-assembling hydrogels based on dicephalic peptide amphiphiles” (Johnson & Johnson Consumer Companies, Inc., priority 2010, dated 2013).
